# Measured values reported in publication PMC9499467, “Phenanthroindolizidine Alkaloids Isolated from Tylophora ovata as Potent Inhibitors of Inflammation, Spheroid Growth, and Invasion of Triple-Negative Breast Cancer” (International Journal of Molecular Sciences, 2022).
# Like-named read-outs stand apart in the source and are kept apart here.
# Assays:
# NFκB [1] = test: NFκB inhibition assay (2 h), NFκB-dependent nanoluc luciferase reporter; assay type: cell-based, human
# Experimental: Experiments were performed according to the published protocol. On day 1, 4 × 10^4 NFκB-MDA-MB-231-nanoluc cells were seeded into white 96 well plates (Greiner; #655098). On day 2, the medium was replaced with starvation medium and the cells were pre-incubated for 20 min with either 100 µL of DMSO (Roth; #A994.1) alone at a concentration of maximal 0.1% or with the final concentration of the diluted compounds (Table 3). To activate NFκB signaling, cells were stimulated with 1 µg/mL LPS (Sigma-Aldrich; #L2630) beforehand. NFκB-dependent luciferase activity was measured according to the manufacturer`s protocol for the Nano-Glo Luciferase Assay System (Promega, Mannheim, Germany; #N1110). NFκB-dependent luminescence was determined as relative light units (RLU) using the microplate reader Spark® (Tecan, Männedorf, Switzerland).
# MDA-MB-231 = test: 2D cell viability (PrestoBlue resazurin) in MDA-MB-231; assay type: cell-based, human; details: Homo sapiens
# Experimental: Cell viability was determined based on resazurin-reduction in viable cells according to the PrestoBlue^TM Assay. On day 1, MDA-MB-231 (1.5 × 10^4 cells per well or 7.5 × 10^3 cells per well) were seeded into black 96 well plates (Greiner; #655090) in a total volume of 100 µL. On day 2, the compounds or DMSO (Roth; #A994.1) alone at maximal 0.1% were applied (final concentrations after serial dilution shown in Table 3). An amount of 20 µM staurosporine (Sigma-Aldrich; #S5921) served as a positive control. On day 3, the PrestoBlue^TM reagent (Invitrogen^TM, Darmstadt, Germany; #A13262) was applied according to the manufacturer`s instructions. Finally, cell viability-dependent fluorescence was recorded in relative fluorescence units (RFU) with excitation/emission (Exλ/Emλ) at 535/590 nm or 560/590 nm, using the microplate reader Spark® (Tecan).
# NFκB [2] = test: NFκB inhibition assay (24 h), NFκB-dependent firefly luciferase reporter; assay type: cell-based; details: Homo sapiens, read-out: NFκB Inhibition 24 h IC50
# Experimental: On day 1, 3 × 10^4 NFκB MDA-MB-231-firefly cells were seeded into white 96 well plates (Greiner; #655098). On day 2, the medium was replaced with starvation medium and the cells were pre-incubated for 20 min with either 100 µL of DMSO (Roth; #A994.1) alone at maximal 0.1%, or with the final concentration of the diluted compounds (Table 3). To activate NFκB signaling, cells were stimulated with 20 ng/mL TNFα (Peprotech, Hamburg, Germany; #300-01A). Cell lysis was performed in 20 µL 1× cell lysis buffer according to the manufacturer’s instruction for the Luciferase Assay System (Promega #E1500). NFκB-dependent luminescence was determined as relative light units (RLU) using the microplate reader Spark® (Tecan).
# HIF = test system: HIF; set-up: method as in earlier work; details: luminal breast cancer cell line T47D; ref 62 (Chen et al.); cited from earlier work
# [3] = test system: 3D co-culture spheroids of MDA-MB-231 and primary murine CAFs; test: 3D cell viability (ATP content) in TNBC co-culture spheroids; assay type: cell-based, human MDA-MB-231; details: for IC50: Mus musculus
# Experimental: On day 1, 3000 cells were seeded into a low-attachment 96 well plate (Greiner; #650970). […] Cell viability was determined based on the ATP content in viable cells according to the manufacturer`s instructions (Promega #G9682). Co-culture spheroids were generated for 72 h before they were grown for another 72 h with or without exposure to the compounds. […] Cell viability-dependent luminescence was determined as relative light units (RLU) using the microplate reader Spark® (Tecan).
# CAFs = test: 2D cell viability in CAFs; assay type: cell-based, murine; details: Mus musculus, 24 h, read-out: Reduction of Cell Viability 24 h IC50 in CAFs
# Experimental: Table S1 IC50-values for reduction of cell viability determined in CAFs.
# Compound Cell Viability 1
# 1 Cell viability of CAFs was determined 24 h post-treatment with the 2D cell viability assay. CAFs were seeded at a cell density of 2.5 × 10^3 cells per well. Compound concentration was applied in triplicates in a four-fold serial dilution starting at 1000 nM. 2 Duration of treatment. 3 Mean ± SD […]
# 50 µM. 4 Mean ± SD (n = 3). 5 Mean ± SD (n = 2).
# HIF-1α = test: HIF inhibition, HIF-mediated UnaG reporter expression; assay type: cell-based
# Experimental: The HIF activity after treatment with compound (1s) or with the commercially available NFκB inhibitor BAY 11-7085 ((Hycultec, Beutelsbach, Germany; #HY-10257-10),) for 24 h was determined using the UnaG-reporter gene cell line MDA-MB-468-UnaG. On day 1, 1.5 × 10^4 MDA-MB-468-UnaG cells were seeded into a black 96 well plate (Greiner; #655090). […] HIF-mediated UnaG expression was recorded in z-stacked images using the CQ1 high-content imaging system (Yokogawa, Wehr, Germany; 100× g magnification). Beforehand, the UnaG fluorescence intensity was determined in UnaG-expressing cell clones (Figure S5).
# Figure 7 Compound (1s) decreases HIF-dependent gene transcription. MDA-MB-468-UnaG cells were pre-treated for 1 h without (CTRL) or with compound (1s) or BAY 11-7085 (BAY) before being grown (a,b) in the absence (normoxia; CTRL) or (c,d) presence of 100 µM CoCl2 (hypoxia) for another 24 h. (a,c) Representative fluorescence images. Scale bar: 200 µm (b,d) Total fluorescence intensity of HIF-mediated UnaG was normalized to the CTRL group. Statistical difference was calculated with one-way ANOVA (b) vs. CTRL (normoxia) (ns = not significant, * p < 0.05). (d) vs. CTRL (hypoxia) (# p < 0.05); vs. CoCl2 (* p < 0.05, ** p < 0.01, *** p < 0.001). (b,d) Columns represent the mean ± SEM (n = 3).
# [4] = Homo sapiens, NFκB-MDA-MB-231-nanoluc cells, 2-h treatment, mean ± SD, read-out: NFκB Inhibition 2 h IC50
# [5] = MDA-MB-231 2D monolayer, 24 h post-treatment, mean ± SD, read-out: Reduction of Cell Viability 24 h IC50
# [6] = NFκB-MDA-MB-231-firefly cells, 24-h treatment, 20 ng/mL TNFα, mean ± SD
# [7] = MDA-MB-231, 3D co-culture spheroids, 72 h treatment, mean ± SD (n = 3), read-out: Reduction of Cell Viability 72 h IC50
Compound,IC50 (NFκB [1]; [4]),IC50 (MDA-MB-231; [5]),IC50 (NFκB [2]; [6]),HIF induction under low oxygen level (HIF),"IC50 [3, 7]","IC50 (CAFs; CAFs, mean ± SD (n = 3))",further results
"COc1ccc2c(c1)c1cc(OC)c(OC)cc1c1c[n+]3c(cc21)CCC3 [Compound (5), tylophoridicine D]",> 1000 nM,> 1000 nM,> 1000 nM,not,> 1000 nM,> 1000 nM,cytotoxic activity ([3]; in MDA-MB-231 or in the 3D co-culture spheroids): no cytotoxic activity
"COc1cc2c3c(c4ccc(O)cc4c2cc1OC)[C@H](O)[C@@H]1CCCN1C3 [Compound (3), tylophoridicine E]",285 ± 60.4 nM,55.3 ± 13.2 nM,114 ± 17.9 nM,blockade of HIF induction,477 ± 160 nM,26.7 ± 3.1 nM,–
"COc1ccc2c3c(c4cc(OC)c(O)cc4c2c1)CN1CCC[C@H]1[C@H]3O [Compound (2), tylophorinidine]",212 ± 69.9 nM,118 ± 35 nM,38.2 ± 14.2 nM,blockade of HIF induction,442 ± 70.8 nM,19.7 ± 3.7 nM,–
COc1ccc2c3c(c4cc(OC)c(OC)cc4c2c1)CN1CCC[C@H]1[C@@H]3O [tylophorinine],–,–,–,blockade of HIF induction,–,–,–
"COc1ccc2c(c1)c1cc(O)c(OC)cc1c1c[n+]3c(cc21)CCC3 [Compound (6), anhydrodehydrotylophorinidine]",> 1000 nM,> 1000 nM,> 1000 nM,–,> 1000 nM,> 1000 nM,cytotoxic activity [3]: no cytotoxic activity
"COc1ccc2c3c(c4cc(OC)c(OC)cc4c2c1)CN1CCC[C@H]1C3 [Compound (4), 2-demethoxytylophorine]",–,–,–,–,–,–,"IC50 (NFκB [1]; Homo sapiens, 2 h, read-out: NFκB Inhibition 2 h IC50, NFκB-MDA-MB-231-nanoluc cells, 2-h treatment, mean ± SD): 83 ± 14.7 nM; IC50 (MDA-MB-231; MDA-MB-231, 24 h, read-out: Reduction of Cell Viability 24 h IC50, MDA-MB-231 2D monolayer, 24 h post-treatment, mean ± SD): 127 ± 21.4 nM; IC50 (NFκB [2]; 24 h): 28.3 ± 5.6 nM; IC50 ([3]; MDA-MB-231, 72 h, read-out: Reduction of Cell Viability 72 h IC50, 3D co-culture spheroids, 72 h treatment, mean ± SD (n = 3)): 518 ± 76.8 nM; IC50 (CAFs): 33.5 ± 12.7 nM"
"CC(C)(C)c1ccc(S(=O)(=O)/C=C/C#N)cc1 [BAY 11-7085, reference compound]",–,–,–,–,–,–,"IC50 (NFκB [1]; NFκB-MDA-MB-231-nanoluc cells, 2-h treatment, mean ± SD, read-out: NFκB Inhibition 2 h IC50): 5500 ± 2000 nM; effect on HIF-1α-mediated UnaG expression (HIF-1α; normoxia): no significant effects; CoCl2-induced increase in HIF-1α-activity (HIF-1α; pre-treatment before CoCl2-simulated hypoxia, 6 µM BAY 11-7085, 2, 5, 10, 20 nM (1s)): blocked"
